Key:
Experiment in all cases: KINOMEscan competition binding
Conditions in all cases: compound 10.0 µM
AAK1 (human) = AAK1 (human) (UniProt Q2M2I8)
ANKK1 (human) = ANKK1 (human) (UniProt Q8NFD2)
AURKA (human) = AURKA (human) (UniProt O14965)
AURKB (human) = AURKB (human) (UniProt Q96GD4)
AURKC (human) = AURKC (human) (UniProt Q9UQB9)
CDK18 (human) = CDK18 (human) (UniProt Q07002)
CSNK2A2 (human) = CSNK2A2 (human) (UniProt P19784)
[1] = test system: EGFR (human), P00533 [L858R]
EPHA5 (human) = EPHA5 (human) (UniProt P54756)
[2] = test system: FLT3 (human), P36888 [D835Y]
GSK3B (human) = GSK3B (human) (UniProt P49841)
HCK (human) = HCK (human) (UniProt P08631)
HUNK (human) = HUNK (human) (UniProt P57058)
[3] = target: JAK2 JH1 catalytic (human) (UniProt O60674)
MAP2K5 (human) = MAP2K5 (human) (UniProt Q13163)
MAP3K12 (human) = MAP3K12 (human) (UniProt Q12852)
Chain of MAP3K12 (human) (Q12852 whole entry, looked up): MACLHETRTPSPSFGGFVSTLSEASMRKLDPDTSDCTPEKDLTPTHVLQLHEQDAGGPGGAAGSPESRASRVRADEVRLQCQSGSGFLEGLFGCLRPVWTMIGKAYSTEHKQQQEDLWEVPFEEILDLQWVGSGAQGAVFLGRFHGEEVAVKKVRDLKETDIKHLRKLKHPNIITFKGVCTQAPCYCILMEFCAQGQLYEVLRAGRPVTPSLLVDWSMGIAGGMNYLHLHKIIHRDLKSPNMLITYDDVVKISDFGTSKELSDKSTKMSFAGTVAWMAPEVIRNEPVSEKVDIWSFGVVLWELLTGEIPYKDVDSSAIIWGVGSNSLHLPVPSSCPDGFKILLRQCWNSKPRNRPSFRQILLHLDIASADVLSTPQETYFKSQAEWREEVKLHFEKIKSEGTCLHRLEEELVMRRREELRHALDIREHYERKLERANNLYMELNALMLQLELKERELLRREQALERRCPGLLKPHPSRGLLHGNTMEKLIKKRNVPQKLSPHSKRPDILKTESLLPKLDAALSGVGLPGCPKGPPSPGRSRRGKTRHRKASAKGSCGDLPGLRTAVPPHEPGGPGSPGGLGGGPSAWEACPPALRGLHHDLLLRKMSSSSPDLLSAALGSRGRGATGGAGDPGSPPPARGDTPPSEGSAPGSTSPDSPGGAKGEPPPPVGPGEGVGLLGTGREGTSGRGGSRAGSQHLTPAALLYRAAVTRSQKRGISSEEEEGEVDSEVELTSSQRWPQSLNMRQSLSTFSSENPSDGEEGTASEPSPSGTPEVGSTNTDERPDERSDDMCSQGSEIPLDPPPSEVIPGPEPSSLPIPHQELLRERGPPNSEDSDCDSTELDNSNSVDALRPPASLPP

MAP3K15 (human) = MAP3K15 (human) (UniProt Q6ZN16)
MAPK10 (human) = MAPK10 (human) (UniProt P53779)
MAPK11 (human) = MAPK11 (human) (UniProt Q15759)
MARK4 (human) = MARK4 (human) (UniProt Q96L34)
Chain of MARK4 (human) (Q96L34 whole entry, looked up): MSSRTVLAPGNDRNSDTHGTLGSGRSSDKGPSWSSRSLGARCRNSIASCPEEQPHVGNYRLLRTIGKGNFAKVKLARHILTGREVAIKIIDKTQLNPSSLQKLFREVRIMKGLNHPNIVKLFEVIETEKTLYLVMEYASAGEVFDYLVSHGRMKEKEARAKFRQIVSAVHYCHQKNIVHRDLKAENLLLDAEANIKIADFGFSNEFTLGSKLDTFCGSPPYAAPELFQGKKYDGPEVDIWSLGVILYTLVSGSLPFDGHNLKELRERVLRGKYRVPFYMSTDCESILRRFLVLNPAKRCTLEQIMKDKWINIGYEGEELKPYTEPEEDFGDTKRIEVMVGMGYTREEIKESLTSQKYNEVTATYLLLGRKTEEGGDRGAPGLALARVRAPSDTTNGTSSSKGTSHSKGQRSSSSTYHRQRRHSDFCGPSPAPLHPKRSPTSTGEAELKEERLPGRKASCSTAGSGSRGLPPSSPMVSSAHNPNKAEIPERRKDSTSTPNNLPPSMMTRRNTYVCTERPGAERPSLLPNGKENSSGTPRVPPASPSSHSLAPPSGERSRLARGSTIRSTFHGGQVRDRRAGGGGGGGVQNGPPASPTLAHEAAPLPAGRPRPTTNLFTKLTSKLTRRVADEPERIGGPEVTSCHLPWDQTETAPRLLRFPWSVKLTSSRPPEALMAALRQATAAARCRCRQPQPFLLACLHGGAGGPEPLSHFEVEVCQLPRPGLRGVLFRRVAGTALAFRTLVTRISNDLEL

MINK1 (human) = MINK1 (human) (UniProt Q8N4C8)
MKNK2 (human) = MKNK2 (human) (UniProt Q9HBH9)
NEK1 (human) = NEK1 (human) (UniProt Q96PY6)
PDGFRA (human) = PDGFRA (human) (UniProt P16234)
PKN2 (human) = PKN2 (human) (UniProt Q16513)
PRKAA1 (human) = PRKAA1 (human) (UniProt Q13131)
PRKD2 (human) = PRKD2 (human) (UniProt Q9BZL6)
Chain of PRKD2 (human) (Q9BZL6 whole entry, looked up): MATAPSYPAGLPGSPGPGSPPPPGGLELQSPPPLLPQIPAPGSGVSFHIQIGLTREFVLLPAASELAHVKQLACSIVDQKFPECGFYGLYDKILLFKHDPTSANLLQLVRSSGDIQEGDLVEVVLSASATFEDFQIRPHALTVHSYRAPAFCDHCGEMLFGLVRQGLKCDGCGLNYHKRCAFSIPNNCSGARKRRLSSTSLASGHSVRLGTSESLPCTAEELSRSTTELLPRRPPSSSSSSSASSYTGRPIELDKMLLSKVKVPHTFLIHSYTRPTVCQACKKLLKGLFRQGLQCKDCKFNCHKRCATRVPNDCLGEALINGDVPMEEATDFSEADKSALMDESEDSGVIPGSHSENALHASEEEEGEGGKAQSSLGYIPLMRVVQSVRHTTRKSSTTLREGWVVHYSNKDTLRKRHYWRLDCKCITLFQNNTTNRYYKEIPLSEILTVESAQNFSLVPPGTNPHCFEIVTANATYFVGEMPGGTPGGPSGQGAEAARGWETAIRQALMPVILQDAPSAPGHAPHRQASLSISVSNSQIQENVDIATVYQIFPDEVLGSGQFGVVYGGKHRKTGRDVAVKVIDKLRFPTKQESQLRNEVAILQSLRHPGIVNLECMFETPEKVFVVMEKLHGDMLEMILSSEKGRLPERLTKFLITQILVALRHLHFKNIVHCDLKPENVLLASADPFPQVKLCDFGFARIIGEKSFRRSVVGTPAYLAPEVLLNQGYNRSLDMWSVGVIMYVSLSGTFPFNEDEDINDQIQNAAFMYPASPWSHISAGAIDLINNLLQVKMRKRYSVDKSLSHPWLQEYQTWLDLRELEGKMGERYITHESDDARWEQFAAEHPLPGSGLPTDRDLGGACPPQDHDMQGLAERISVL

RIOK1 (human) = RIOK1 (human) (UniProt Q9BRS2)
RPS6KA1 KD2 (human) = RPS6KA1 KD2 (human) (UniProt Q15418)
RPS6KA4 KD2 (human) = RPS6KA4 KD2 (human) (UniProt O75676)
SBK1 (human) = SBK1 (human) (UniProt Q52WX2)
SNRK (human) = SNRK (human) (UniProt Q9NRH2)
SRPK1 (human) = SRPK1 (human) (UniProt Q96SB4)
STK16 (human) = STK16 (human) (UniProt O75716)
STK32C (human) = STK32C (human) (UniProt Q86UX6)
Chain of STK32C (human) (Q86UX6 whole entry, looked up): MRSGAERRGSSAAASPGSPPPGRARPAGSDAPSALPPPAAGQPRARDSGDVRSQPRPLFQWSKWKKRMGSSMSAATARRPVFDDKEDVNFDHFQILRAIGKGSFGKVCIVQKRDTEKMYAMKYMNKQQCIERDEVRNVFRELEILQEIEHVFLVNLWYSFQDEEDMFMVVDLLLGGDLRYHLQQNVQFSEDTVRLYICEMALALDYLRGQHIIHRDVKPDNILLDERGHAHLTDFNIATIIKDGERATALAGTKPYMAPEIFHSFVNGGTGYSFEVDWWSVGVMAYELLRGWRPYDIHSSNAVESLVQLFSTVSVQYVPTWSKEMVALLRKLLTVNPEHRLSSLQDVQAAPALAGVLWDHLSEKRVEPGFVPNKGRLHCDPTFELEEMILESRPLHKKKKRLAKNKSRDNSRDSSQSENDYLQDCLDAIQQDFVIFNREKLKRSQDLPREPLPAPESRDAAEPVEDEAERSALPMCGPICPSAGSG

STK33 (human) = STK33 (human) (UniProt Q9BYT3)
STK35 (human) = STK35 (human) (UniProt Q8TDR2)
TESK1 (human) = TESK1 (human) (UniProt Q15569)
Chain of TESK1 (human) (Q15569 whole entry, looked up): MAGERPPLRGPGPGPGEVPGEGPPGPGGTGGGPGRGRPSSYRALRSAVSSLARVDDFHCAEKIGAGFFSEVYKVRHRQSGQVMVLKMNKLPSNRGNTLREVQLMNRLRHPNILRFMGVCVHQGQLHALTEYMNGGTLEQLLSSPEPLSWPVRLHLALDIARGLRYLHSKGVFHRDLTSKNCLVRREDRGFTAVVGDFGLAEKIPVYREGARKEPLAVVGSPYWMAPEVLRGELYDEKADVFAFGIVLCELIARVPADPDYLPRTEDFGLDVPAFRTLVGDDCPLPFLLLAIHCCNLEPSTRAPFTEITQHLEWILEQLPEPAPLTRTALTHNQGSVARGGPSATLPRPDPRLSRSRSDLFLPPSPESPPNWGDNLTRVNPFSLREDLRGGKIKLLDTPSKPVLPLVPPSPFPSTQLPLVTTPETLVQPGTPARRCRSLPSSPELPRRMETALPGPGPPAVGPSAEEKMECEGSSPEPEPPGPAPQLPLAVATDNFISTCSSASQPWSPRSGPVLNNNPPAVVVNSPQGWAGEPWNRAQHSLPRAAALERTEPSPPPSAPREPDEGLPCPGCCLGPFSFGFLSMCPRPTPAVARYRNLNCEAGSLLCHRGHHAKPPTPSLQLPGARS

CSF1R (human) = CSF1R (human) (UniProt P07333)
CaMK1 (human) = CaMK1 (human) (UniProt Q14012)

Chain of CSNK2A2 (human) (P19784 whole entry, looked up): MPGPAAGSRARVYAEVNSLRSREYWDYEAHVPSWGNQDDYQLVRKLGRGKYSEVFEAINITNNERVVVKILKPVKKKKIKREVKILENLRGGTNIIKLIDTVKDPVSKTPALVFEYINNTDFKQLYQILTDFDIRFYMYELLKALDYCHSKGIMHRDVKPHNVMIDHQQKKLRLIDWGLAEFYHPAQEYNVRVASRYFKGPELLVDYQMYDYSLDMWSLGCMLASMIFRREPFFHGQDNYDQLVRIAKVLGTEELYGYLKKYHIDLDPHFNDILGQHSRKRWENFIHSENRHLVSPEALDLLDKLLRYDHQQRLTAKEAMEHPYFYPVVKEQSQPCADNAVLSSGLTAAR
Chain of AURKB (human) (Q96GD4 whole entry, looked up): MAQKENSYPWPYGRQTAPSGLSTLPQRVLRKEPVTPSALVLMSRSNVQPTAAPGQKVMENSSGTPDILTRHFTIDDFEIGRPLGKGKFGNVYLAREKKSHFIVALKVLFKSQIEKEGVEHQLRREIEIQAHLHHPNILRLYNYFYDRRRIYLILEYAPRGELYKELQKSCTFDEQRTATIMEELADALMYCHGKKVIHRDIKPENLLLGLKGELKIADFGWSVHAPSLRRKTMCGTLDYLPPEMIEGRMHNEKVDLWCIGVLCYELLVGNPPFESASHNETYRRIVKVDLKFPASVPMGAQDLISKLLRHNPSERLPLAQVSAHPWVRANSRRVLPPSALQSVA
Chain of CDK18 (human) (Q07002 whole entry, looked up): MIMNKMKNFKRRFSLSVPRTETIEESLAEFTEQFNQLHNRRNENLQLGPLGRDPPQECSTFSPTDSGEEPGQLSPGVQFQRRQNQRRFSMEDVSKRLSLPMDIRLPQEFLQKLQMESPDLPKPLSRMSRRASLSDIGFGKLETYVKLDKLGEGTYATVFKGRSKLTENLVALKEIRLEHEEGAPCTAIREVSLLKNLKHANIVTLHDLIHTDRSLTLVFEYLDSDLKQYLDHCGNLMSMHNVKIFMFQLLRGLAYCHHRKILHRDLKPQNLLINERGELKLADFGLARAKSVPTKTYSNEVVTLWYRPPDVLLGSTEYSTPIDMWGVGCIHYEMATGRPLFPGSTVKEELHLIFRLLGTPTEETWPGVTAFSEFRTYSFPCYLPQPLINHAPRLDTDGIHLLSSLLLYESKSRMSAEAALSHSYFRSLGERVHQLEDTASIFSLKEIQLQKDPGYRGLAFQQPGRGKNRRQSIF

| Structure (SMILES) | kinase still bound, per cent of control (ANKK1 (human)) | kinase still bound, per cent of control (AURKA (human)) | kinase still bound, per cent of control (AURKB (human)) | kinase still bound, per cent of control (AURKC (human)) | kinase still bound, per cent of control (CDK18 (human)) | kinase still bound, per cent of control (CSNK2A2 (human)) | kinase still bound, per cent of control (GSK3B (human)) | kinase still bound, per cent of control (HCK (human)) | kinase still bound, per cent of control (HUNK (human)) | kinase still bound, per cent of control [3] | kinase still bound, per cent of control (MAP2K5 (human)) | kinase still bound, per cent of control (MAP3K12 (human)) | kinase still bound, per cent of control (MAP3K15 (human)) | kinase still bound, per cent of control (MAPK11 (human)) | kinase still bound, per cent of control (MARK4 (human)) | kinase still bound, per cent of control (MINK1 (human)) | kinase still bound, per cent of control (MKNK2 (human)) | kinase still bound, per cent of control (PDGFRA (human)) | kinase still bound, per cent of control (PKN2 (human)) | kinase still bound, per cent of control (PRKAA1 (human)) | further results |
| --- | --- | --- | --- | --- | --- | --- | --- | --- | --- | --- | --- | --- | --- | --- | --- | --- | --- | --- | --- | --- | --- |
| CCCS(=O)(=O)Nc1ccc(F)c(C(=O)c2c[nH]c3ncc(Cl)cc23)c1F | 98% | 60% | 29% | 100% | 73% | 12% | 100% | 19% | 24% | 44% | 0.15% | 52% | 74% | 100% | 72% | 28% | 84% | 0.2% | 100% | 64% | kinase still bound, per cent of control (AAK1 (human)): 84%; kinase still bound, per cent of control [1]: 72%; kinase still bound, per cent of control (EPHA5 (human)): 100%; kinase still bound, per cent of control [2]: 31%; kinase still bound, per cent of control (MAPK10 (human)): 90%; kinase still bound, per cent of control (NEK1 (human)): 72%; kinase still bound, per cent of control (PRKD2 (human)): 100%; kinase still bound, per cent of control (RIOK1 (human)): 100%; kinase still bound, per cent of control (RPS6KA1 KD2 (human)): 75%; kinase still bound, per cent of control (RPS6KA4 KD2 (human)): 69%; kinase still bound, per cent of control (SBK1 (human)): 92%; kinase still bound, per cent of control (SNRK (human)): 100%; kinase still bound, per cent of control (SRPK1 (human)): 100%; kinase still bound, per cent of control (STK16 (human)): 18%; kinase still bound, per cent of control (STK32C (human)): 86%; kinase still bound, per cent of control (STK33 (human)): 85%; kinase still bound, per cent of control (STK35 (human)): 100%; kinase still bound, per cent of control (TESK1 (human)): 13% |
| N#C/C(=C1/Nc2ccccc2S1)c1ccnc(NCCc2cccnc2)n1 | 5.6% | 100% | 89% | 67% | 92% | 1% | 0.15% | 100% | 92% | 45% | 0.8% | 81% | 100% | 85% | 100% | 45% | 0.5% | 100% | 100% | 100% | kinase still bound, per cent of control (AAK1 (human)): 10%; kinase still bound, per cent of control (CSF1R (human)): 98%; kinase still bound, per cent of control (CaMK1 (human)): 73%; kinase still bound, per cent of control (EPHA5 (human)): 99%; kinase still bound, per cent of control [2]: 53%; kinase still bound, per cent of control (NEK1 (human)): 57%; kinase still bound, per cent of control (PRKD2 (human)): 100%; kinase still bound, per cent of control (RIOK1 (human)): 30%; kinase still bound, per cent of control (RPS6KA1 KD2 (human)): 27%; kinase still bound, per cent of control (RPS6KA4 KD2 (human)): 57%; kinase still bound, per cent of control (SBK1 (human)): 94%; kinase still bound, per cent of control (SNRK (human)): 2.7%; kinase still bound, per cent of control (SRPK1 (human)): 70%; kinase still bound, per cent of control (STK16 (human)): 13%; kinase still bound, per cent of control (STK32C (human)): 99%; kinase still bound, per cent of control (STK33 (human)): 86%; kinase still bound, per cent of control (STK35 (human)): 85%; kinase still bound, per cent of control (TESK1 (human)): 87% |
| CCN(CCO)CCCOc1ccc2c(Nc3cc(CC(=O)Nc4cccc(F)c4)[nH]n3)ncnc2c1 | 11% | 6.5% | 0.2% | 19% | 62% | 86% | 100% | 31% | 94% | 58% | 0.4% | 58% | 100% | 100% | 100% | 25% | 6.4% | 0% | 86% | 64% | kinase still bound, per cent of control (CSF1R (human)): 5%; kinase still bound, per cent of control (CaMK1 (human)): 69%; kinase still bound, per cent of control (MAPK10 (human)): 41%; kinase still bound, per cent of control (PRKD2 (human)): 80%; kinase still bound, per cent of control (RIOK1 (human)): 100%; kinase still bound, per cent of control (RPS6KA1 KD2 (human)): 69%; kinase still bound, per cent of control (RPS6KA4 KD2 (human)): 79%; kinase still bound, per cent of control (SBK1 (human)): 100%; kinase still bound, per cent of control (SNRK (human)): 100%; kinase still bound, per cent of control (SRPK1 (human)): 100%; kinase still bound, per cent of control (STK16 (human)): 100%; kinase still bound, per cent of control (STK32C (human)): 78%; kinase still bound, per cent of control (STK33 (human)): 51%; kinase still bound, per cent of control (STK35 (human)): 85%; kinase still bound, per cent of control (TESK1 (human)): 100% |

From the kinase profiling compilation of Christmann-Franck et al. (2016)
